From patent publication US20020137929A1, “1 - (3-heterocyclylphenyl) isothiourea, -isourea, -guanidine and -amidine herbicidal agents” (Intellectual Property Department, BASF Aktiengesellschaft, priority 1998, published 2002)

Key:
ZEAMX (Corn, Field) = test: Postemergence herbicidal evaluation; type: in vivo, Zea mays; conditions: postemergence
How it was run: (§1)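 ~2-wk seedlings; postemergence spray, 40 psi; vehicle 1:1 acetone:water + 0.5% Tween 20; rate ≈0.0156–0.500 kg/ha; greenhouse hold; scored 4–5 wk after treatment, 0–9 scale vs control; repeat tests averaged.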

CASOB (Sicklepod) = test: Postemergence herbicidal evaluation; type: in vivo, Cassia obtusifolia; conditions: postemergence
How it was run: as §1

ORYSAT (Rice, Tebonnet) [1] = test: Preemergence herbicidal evaluation; type: in vivo, Oryza sativa, (L.) Tebonnet; conditions: rated 4-5 weeks after treatment
How it was run: (§2)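 Scores (0–9) reflect visual comparison with control plants for stand, vigor, malformation, size and chlorosis. Compound was applied to the soil after sowing, before emergence, as an aqueous acetone spray (about 0.0156–0.500 kg/ha), and cups were kept in a greenhouse for 4–5 weeks.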

ORYSAT (Rice, Tebonnet) [2] = test: Postemergence herbicidal evaluation; type: in vivo, Oryza sativa, (L.) Tebonnet; conditions: postemergence
How it was run: as §1

SETVI (Foxtail, Green) = test: Preemergence herbicidal evaluation; type: in vivo, Setaria viridis; conditions: rated 4-5 weeks after treatment
How it was run: as §2

CYPSE (Flatsedge) = test: Preemergence weed control under flooded paddy conditions; type: in vivo, Cyperus serotinus; conditions: rated 3-4 weeks after treatment
How it was run: (§3)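 Seeds or propagules sown in top 0.5 cm of silt loam soil, flooded 1.5 to 3 cm above surface throughout. Compound in 50/50 v/v aqueous/acetone pipetted into flood water at about 0.0313 to 0.500 kg/ha. Visual 0-9 rating versus control after three to four weeks in greenhouse.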

MOOVA (Monochoria) = test: as above; type: in vivo, Monochoria vaginalis; conditions: rated 3-4 weeks after treatment
How it was run: as §3

GALAP (Galium) = test: Postemergence herbicidal evaluation; type: in vivo, Galium aparine; conditions: postemergence
How it was run: as §1

[3] = system: CHEAL (Lambsquarters, Common); test: Postemergence herbicidal evaluation; type: in vivo, Chenopodium album; conditions: postemergence
How it was run: as §1

AMBEL (Ragweed, Common) = test: Preemergence herbicidal evaluation; type: in vivo, Ambrosia artemisifolia; conditions: rated 4-5 weeks after treatment
How it was run: as §2

[4] = system: GLXMAW (Soybean, Williams); test: Preemergence herbicidal evaluation; type: in vivo, Glycine max, (L.) Merr. cv Williams; conditions: rated 4-5 weeks after treatment
How it was run: as §2

With `CCOC(=O)CN1C(=O)C(Cl)SC1=Nc1cc(-n2c(=O)cc(C(F)(F)F)n(C)c2=O)c(F)cc1Cl` (centres unmarked) [Compound 126, Ethyl 5-chloro-2-{{2-chloro-5-[3,6-dihydro-3-methyl-2,6-dioxo-4-(trifluoromethyl)-1(2H)-pyrimidinyl]-4-fluorophenyl}imino}-4-oxo-3-thiazolidineacetate] the “herbicidal rating ZEAMX” value (ZEAMX (Corn, Field); rate 0.0156 kg/ha) was 4.0, the “herbicidal rating ZEAMX” value (ZEAMX (Corn, Field); rate 0.0313 kg/ha) was 4.0 and the “herbicidal rating ZEAMX” value (ZEAMX (Corn, Field); rate 0.0625 kg/ha) was 4.5. For the same compound, the “herbicidal rating ZEAMX” value (ZEAMX (Corn, Field); rate 0.1250 kg/ha) was 6.5, the “herbicidal rating CASOB” value (CASOB (Sicklepod); rate 0.0156 kg/ha) was 0.0 and the “herbicidal rating CASOB” value (CASOB (Sicklepod); rate 0.0313 kg/ha) was 0.0. For the same compound, the “herbicidal rating CASOB” value (CASOB (Sicklepod); rate 0.0625 kg/ha) was 2.0, the “herbicidal rating CASOB” value (CASOB (Sicklepod); rate 0.1250 kg/ha) was 4.0 and the “Preemergence herbicidal rating ORYSAT” value (ORYSAT (Rice, Tebonnet) [1]; rate 0.0625 kg/ha) was 0.0. The “Preemergence herbicidal rating ORYSAT” value (ORYSAT (Rice, Tebonnet) [1]; rate 0.1250 kg/ha) was 0.0, the “Preemergence herbicidal rating ORYSAT” value (ORYSAT (Rice, Tebonnet) [1]; rate 0.2500 kg/ha) was 0.0 and the “Preemergence herbicidal rating ORYSAT” value (ORYSAT (Rice, Tebonnet) [1]; rate 0.5000 kg/ha) was 3.0. The “herbicidal rating ORYSAT” value (ORYSAT (Rice, Tebonnet) [2]; rate 0.0156 kg/ha) was 0.0, the “herbicidal rating ORYSAT” value (ORYSAT (Rice, Tebonnet) [2]; rate 0.0313 kg/ha) was 0.5 and the “herbicidal rating ORYSAT” value (ORYSAT (Rice, Tebonnet) [2]; rate 0.0625 kg/ha) was 0.5. The “herbicidal rating ORYSAT” value (ORYSAT (Rice, Tebonnet) [2]; rate 0.1250 kg/ha) was 1.0, the “Preemergence herbicidal rating SETVI” value (SETVI (Foxtail, Green); rate 0.0625 kg/ha) was 0.0 and the “Preemergence herbicidal rating SETVI” value (SETVI (Foxtail, Green); rate 0.1250 kg/ha) was 0.0. For the same compound, the “Preemergence herbicidal rating SETVI” value (SETVI (Foxtail, Green); rate 0.2500 kg/ha) was 3.0, the “Preemergence herbicidal rating SETVI” value (SETVI (Foxtail, Green); rate 0.5000 kg/ha) was 9.0 and the “herbicidal effect rating, CYPSE” value (CYPSE (Flatsedge); 0.0313 kg/ha) was 0.0. The “herbicidal effect rating, CYPSE” value (CYPSE (Flatsedge); 0.0625 kg/ha) was 0.0, the “herbicidal effect rating, CYPSE” value (CYPSE (Flatsedge); 0.1250 kg/ha) was 0.0 and the “herbicidal effect rating, CYPSE” value (CYPSE (Flatsedge); 0.2500 kg/ha) was 0.0. The “herbicidal effect rating, MOOVA” value (MOOVA (Monochoria); 0.0313 kg/ha) was 3.0, the “herbicidal effect rating, MOOVA” value (MOOVA (Monochoria); 0.0625 kg/ha) was 4.0 and the “herbicidal effect rating, MOOVA” value (MOOVA (Monochoria); 0.1250 kg/ha) was 6.0. For the same compound, the “herbicidal effect rating, MOOVA” value (MOOVA (Monochoria); 0.2500 kg/ha) was 7.0, the “herbicidal rating GALAP” value (GALAP (Galium); rate 0.0156 kg/ha) was 0.0 and the “herbicidal rating GALAP” value (GALAP (Galium); rate 0.0313 kg/ha) was 0.0. For the same compound, the “herbicidal rating GALAP” value (GALAP (Galium); rate 0.0625 kg/ha) was 0.0, the “herbicidal rating GALAP” value (GALAP (Galium); rate 0.1250 kg/ha) was 3.0 and the “herbicidal rating CHEAL” value ([3]; rate 0.0156 kg/ha) was 4.0. For the same compound, the “herbicidal rating CHEAL” value ([3]; rate 0.0313 kg/ha) was 4.0, the “herbicidal rating CHEAL” value ([3]; rate 0.0625 kg/ha) was 4.0 and the “herbicidal rating CHEAL” value ([3]; rate 0.1250 kg/ha) was 9.0. The “Preemergence herbicidal rating AMBEL” value (AMBEL (Ragweed, Common); rate 0.0625 kg/ha) was 0.0, the “Preemergence herbicidal rating AMBEL” value (AMBEL (Ragweed, Common); rate 0.1250 kg/ha) was 0.0 and the “Preemergence herbicidal rating AMBEL” value (AMBEL (Ragweed, Common); rate 0.2500 kg/ha) was 4.0. The “Preemergence herbicidal rating AMBEL” value (AMBEL (Ragweed, Common); rate 0.5000 kg/ha) was 5.0, the “Preemergence herbicidal rating GLXMAW” value ([4]; rate 0.0625 kg/ha) was 0.0 and the “Preemergence herbicidal rating GLXMAW” value ([4]; rate 0.1250 kg/ha) was 2.0. For the same compound, the “Preemergence herbicidal rating GLXMAW” value ([4]; rate 0.2500 kg/ha) was 3.0 and the “Preemergence herbicidal rating GLXMAW” value ([4]; rate 0.5000 kg/ha) was 7.0.
